Data reported in the NIST ThermoML archive (doi:10.1016/j.jct.2017.03.006).

Settings: Liquid; for mass density: Vibrating tube method; for viscosity: Concentric cylinders viscometry

CCC(C)O (configuration not stated) [butan-2-ol]
Settings	mass density [kg/m3]	viscosity [mPa·s]
293.15 K, 100000 kPa	860.9	–
293.15 K, 110000 kPa	865	–
293.15 K, 120000 kPa	868.8	–
293.15 K, 130000 kPa	872.7	–
293.15 K, 140000 kPa	876.3	–
303.15 K, 100 kPa	–	2.555
313.15 K, 100 kPa	789.4	1.814
313.15 K, 1000 kPa	790.1	–
313.15 K, 2000 kPa	791	–
313.15 K, 5000 kPa	793.5	–
313.15 K, 10000 kPa	797.5	–
313.15 K, 15000 kPa	801.4	–
313.15 K, 20000 kPa	805.1	–
313.15 K, 30000 kPa	811.9	–
313.15 K, 40000 kPa	818.3	–
313.15 K, 50000 kPa	824.1	–
313.15 K, 60000 kPa	829.6	–
313.15 K, 70000 kPa	835	–
313.15 K, 80000 kPa	839.9	–
313.15 K, 90000 kPa	844.6	–
313.15 K, 100000 kPa	849	–
313.15 K, 110000 kPa	853.3	–
313.15 K, 120000 kPa	857.5	–
313.15 K, 130000 kPa	861.5	–
313.15 K, 140000 kPa	865.4	–
323.15 K, 100 kPa	–	1.331
333.15 K, 100 kPa	770.7	1.007
333.15 K, 1000 kPa	771.6	–
333.15 K, 2000 kPa	772.6	–
333.15 K, 5000 kPa	775.5	–
333.15 K, 10000 kPa	780.1	–
333.15 K, 15000 kPa	784.4	–
333.15 K, 20000 kPa	788.6	–
333.15 K, 30000 kPa	796.2	–
333.15 K, 40000 kPa	803.2	–
333.15 K, 50000 kPa	809.6	–
333.15 K, 60000 kPa	815.7	–
333.15 K, 70000 kPa	821.4	–
333.15 K, 80000 kPa	826.7	–
333.15 K, 90000 kPa	831.8	–
333.15 K, 100000 kPa	836.6	–
333.15 K, 110000 kPa	841.2	–
333.15 K, 120000 kPa	845.5	–
333.15 K, 130000 kPa	849.8	–
333.15 K, 140000 kPa	853.9	–
